pEC50: −log10 of the molar value. The source made the active and inactive calls. The rule behind the calls is not given here.

For series [1], the target named is T1, Albumin (Bos taurus, UniProt P02769). As to the kind of experiment: Antiglycation activity in bovine serum albumin assessed as inhibition of advanced glycated end product formation in presence of D-glucose by spectrofluorimetric analysis. To be noted: for inhibition (INH): cattle.
For series [2], the target named is T2, Albumin (Homo sapiens, UniProt P02768). Briefly: Antiglycation activity in human serum albumin assessed as inhibition of fructosamine formation by measuring amadori products after 10 to 15 mins in presence of 5-hydroxyferulic acid by NBT assay.
In series [3] the target is T1, Albumin. As to the kind of experiment: Antiglycation activity in bovine serum albumin assessed as inhibition of MGO-mediated protein modification after 5 days by PAGE analysis. To be noted: cattle, 120 h.
A short description of series [4]: Inhibition of glucose auto-oxidation after 30 mins in presence of deoxyribose by benzoate hydroxylation assay. It counts as functional.
In series [5] the target is T1, Albumin. As to the kind of experiment: Antiglycation activity in bovine serum albumin assessed as inhibition of advanced glycated end product formation in presence of D-glucose and 5-hydroxyferulic acid by spectrofluorimetric analysis. To be noted: cattle.
Series [6] deals with T2, Albumin. As to the kind of experiment: Antiglycation activity in human serum albumin assessed as inhibition of fructosamine formation by measuring amadori products after 10 to 15 mins by NBT assay.
Series [7] has as its target T1, Albumin. Briefly: Antiglycation activity in bovine serum albumin assessed as inhibition of advanced glycated end product formation in presence of D-glucose and ferulic acid by spectrofluorimetric analysis. To be noted: cattle.
The target of series [8] is T1, Albumin. As to the kind of experiment: Antiglycation activity in bovine serum albumin assessed as inhibition of advanced glycated end product formation in presence of D-glucose at 10 mM by spectrofluorimetric analysis. The following applies: cattle.

T1 sequence (P02769 whole entry): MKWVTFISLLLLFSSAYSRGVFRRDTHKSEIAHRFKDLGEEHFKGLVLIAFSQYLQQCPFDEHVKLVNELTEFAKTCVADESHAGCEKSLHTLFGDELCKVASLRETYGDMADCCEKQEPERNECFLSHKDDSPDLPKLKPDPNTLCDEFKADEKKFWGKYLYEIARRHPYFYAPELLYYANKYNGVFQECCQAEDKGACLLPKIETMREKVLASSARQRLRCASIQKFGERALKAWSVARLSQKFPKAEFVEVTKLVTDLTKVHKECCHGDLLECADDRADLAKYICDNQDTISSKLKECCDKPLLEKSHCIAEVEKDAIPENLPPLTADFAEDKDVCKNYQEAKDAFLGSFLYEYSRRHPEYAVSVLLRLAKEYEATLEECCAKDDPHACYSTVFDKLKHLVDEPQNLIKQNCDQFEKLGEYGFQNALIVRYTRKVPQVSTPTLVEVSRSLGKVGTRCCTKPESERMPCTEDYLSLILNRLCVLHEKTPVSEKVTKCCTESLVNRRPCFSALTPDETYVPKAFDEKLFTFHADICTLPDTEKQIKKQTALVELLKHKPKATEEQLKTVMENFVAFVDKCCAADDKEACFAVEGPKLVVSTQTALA
T2 sequence (P02768 whole entry): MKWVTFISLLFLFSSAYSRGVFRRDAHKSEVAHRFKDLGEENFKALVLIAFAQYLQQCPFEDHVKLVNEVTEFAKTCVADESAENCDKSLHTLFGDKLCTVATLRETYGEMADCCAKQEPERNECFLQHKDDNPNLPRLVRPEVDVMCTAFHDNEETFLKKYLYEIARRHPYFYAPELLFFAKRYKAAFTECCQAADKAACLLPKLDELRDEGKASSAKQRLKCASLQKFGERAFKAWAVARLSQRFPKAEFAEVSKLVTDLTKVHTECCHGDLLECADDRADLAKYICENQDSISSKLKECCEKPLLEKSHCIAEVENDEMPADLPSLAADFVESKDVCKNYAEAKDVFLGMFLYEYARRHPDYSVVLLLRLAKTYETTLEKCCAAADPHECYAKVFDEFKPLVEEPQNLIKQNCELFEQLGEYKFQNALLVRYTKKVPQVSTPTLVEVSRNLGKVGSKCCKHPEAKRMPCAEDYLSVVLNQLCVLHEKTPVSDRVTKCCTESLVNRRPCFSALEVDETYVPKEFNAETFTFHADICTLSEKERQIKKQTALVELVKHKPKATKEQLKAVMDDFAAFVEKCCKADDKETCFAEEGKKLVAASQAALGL

For `CC(=O)c1c(O)cc(O)c(C(C)=O)c1O`, the pEC50 at Albumin [1] was 2.20. The “inhibition (INH)” value at Albumin [1] is 83%; on Albumin [2] it was “Active”; at Albumin [3], “Active”; on Albumin [5] it was “Active”; at Albumin [6] it was “Not Active”. Also, the inhibition result in series [4] was “Active”.

Take `CCCCCCCC/C=C\CCCCCCC(=O)O`: on Albumin [1], the “inhibition (INH)” value is 66%.

As to `CCCCCCCCCCCCCCCC(=O)O` [PALMITIC ACID], the “inhibition (INH)” value on Albumin [1] is 66%.

As for `COc1cc(/C=C/C(=O)O)cc(O)c1O`, the “inhibition (INH)” value at Albumin [1] was “Not Active”; at Albumin [7], “Active”.

In the case of `COc1cc(/C=C/C(=O)O)ccc1O` [FERULATE], the “inhibition (INH)” value at Albumin [1] is reported as “Not Active”; at Albumin [5] it was “Active”.

Turning to `CCCCCC/C=C\CCCCCCCCCC(=O)O` [VACCENIC ACID], the “inhibition (INH)” value on Albumin [1] is 66%.

`N=C(N)NN` [PIMAGEDINE]: on Albumin [1], the pEC50 is 1.59. The “inhibition (INH)” value on Albumin [8] is recorded as “Active”.

The values are drawn from ChEMBL document CHEMBL4190264, “Phylogenomics of 2,4-Diacetylphloroglucinol-Producing Pseudomonas and Novel Antiglycation Endophytes from Piper auritum” (J Nat Prod, 2017).
